The source of these data is patent publication US20080076751A1, “Azetidinone Derivatives and Methods of Use Thereof” (priority 2006, published 2008).

Assay [1] has as its target T1, TRPV1 (VR1) (Rattus norvegicus, UniProt O35433).
T1 construct: expressed in transfected cells; host or cells: HEK293-TetOFF, expression induced by withdrawing doxycycline
The assay is described as follows: TRPV1 screening assay (FLIPR, Fluo-4 calcium), capsaicin stimulation. In kind it is cell-based. The text has this: • 1) Cell line: HEK293-Tet^OFF-TRPV1 • 2) Media: MEM (Invitrogen) • 3) 10% Tet-FBS (Clontech #8630-1) • 4) Fungizone (Gibe #15290-018 (100X)) • 5) Penn/Strep (Gibco #15140-122 (100X)) • 6) Geneticin (Gibco #10131-027 (100X)) • 7) Hygromycin (Clontech #8057-1) • 8) Doxycycline (Clontech #8634-1) • 9) Trypsin/EDTA (Gibco #25200-056) • 10) 100 mm cell culture plates (Falcon #3003) • 11) 96-well poly-D-lysine plates (Fisher #08-774-256) • 12) Hank's Balanced Salt Solution (HBSS) (GIBCO #14025-092) • 13) HEPES Buffer (GIBCO #15630-080) • 14) 30% BSA (Research Organics #1334A) • 15) Probenecid (Sigma P-8761) • 16) Fluo-4, AM (50 μg) (Molecular Probes F-23917) • 17) Pluronic F-127 20% (Molecular Probes P-3000). • 18) capsazepine (Sigma C-191) • 19) capsaicin (Sigma M-2028) • 20) compound plates (NUNC #442587) • 21) black pipet tips 96-well FLIPR (Robbins Scientific 1043-24-0) • 22) Additional reagents available from Fisher: methanol, DMSO, NaOH Reagent Preparation: 1) Cells: HEK293-Tet^OFF-TRPV11
• and Doxycycline 2.5 μg/mL final (from a 1000× stock in PBS) • Cells must be fed and/or split every 2-3 days (to maintain transcriptional repression with Doxycycline). • Must be split no more than 1:5 (50-75% confluency) to maintain growth and viability. • Grown on regular tissue culture plates (e.g Falcon 3003-100 mm) • Split cells via Trypsin/EDTA: incubate with trypsin at room temperature no longer than 5 minutes (HEK293 cells have a tendency to ball up if over trypsinized). • Two days prior to assay, the cells are split into 96-well plates in cell media in the absence of doxycycline at a concentration of 40,000 cells/well in a volume of 200 μL. 2) FLIPR buffer is prepared fresh:
Add 5 mL of Probenecid Solution, prepared as follows: 710 mg of probenecid (Sigma P-8761) is solubilized in 5 mL of 1N NaOH, 5 mL of above buffer is added for final volume of 10 mL. (of which 5 mL goes back into FLIPR buffer)
Combine 42 μL of dye mixture with 11 mL of FLIPR buffer/96-well plate.
Stock solution of 0.1 M capsaicin is prepared in MeOH (50 mg+1.6 mL MeOH). Store 50 μL aliquots at −80° C.
For assay: • a) Dilute stock by adding 0.8 μL into 1 mL of MeOH (final=80 uM). • b) Add 50 μL of diluted stock to 20 mL of FLIPR buffer (final=0.2 uM) • c) Agonist solution is added 150 μL/well to 96-well plate. • d) Final agonist concentration on cells will be 50 nM. […] Laser is adjusted upwards for an average signal≧10,000/well and less than 10% variability. 7) Compound addition conditions are as follows: • FLIPR setup (dual sequence parameters): • Sequence 1: • First interval 1 sec/60 counts • Second interval 6 sec/50 counts • Fluid addition=50 μL • Pipettor height 110 μL • Dispense Speed=30 μL/sec • Sequence 2: • Second interval 1 sec/60 counts • Second interval 6 sec/40 counts • Fluid addition=50 μL • Pipettor height=140 μL • Dispense Speed=50 μL/sec Data Analysis: • 1) Data from both additions is reported as Max-Min for each well

The target in assay [2] is T2, human CaV3.2 (Homo sapiens, UniProt O95180).
T2 construct: expressed in transfected cells
The assay is described as follows: IonWorks screen for hCaV3.2 (T-type calcium current, voltage clamp). In kind it is cell-based. As to conditions: IonWorks HT, HEK cells, 10 min incubation, pulse 10, 8-point curve; read-out: IW hCav3 2 IC50. The text has this: Functional evaluation of voltage-gated ion channels can be used to determine potency and/or single concentration efficacy of the Azetidinone Derivatives of the present invention. Two different methodologies can be used to measure ion currents: the lonWorks HT (Molecular Devices, Sunnyvale, Calif.) a moderate throughput voltage clamp screening platform that utilizes 96-well compound plates and conventional whole cell patch clamp for lower throughput, higher fidelity determinations.
HEK cells are transiently transfected and then selected for stable heterologous expression of different channel proteins of interest. Calcium channel cell lines expressed a resting potassium current, human Kir2.1, and the pore forming α-subunit of voltage-gated calcium channels. In the case of CaV2.1 cells the auxiliary subunit, β2a, is also expressed. Calcium channel lines that are used to generate the data will express either human CaV3.2, rat CaV3.2 or human CaV2.1. The human heart sodium channel, hNaV1.5, are stably expressed in CHO cells.
Cell lines can be grown at 37° C. in humidified incubators, equilibrated with 95% air/5% CO2. CHO cells can be grown in Ham's F-12 medium. HEK cells can be grown in DMEM. All media are supplemented with 10% heat-inactivated fetal bovine serum, penicillin, streptomycin and appropriate selection antibiotics (zeocin, geneticin and/or hygromycin). Cells are passaged when 80% confluent or less.
IonWorks Screen for hCaV3.2
The extracellular buffer for experiments using this instrument contained the following (mM) (NaCl 125, HEPES 10, KCl 5.4, CaCl2 1.8, MgCl2 1.8, 0.2 BaCl2 pH 7.35). The lonWorks uses amphotericin to gain electrical access to the cell interior. The internal solution contained (mM concentrations): 130 K-gluconate, 20 KCl, 5 HEPES-KOH (pH 7.25), 2 CaCl2, 1 MgCl2. Amphotericin added at 5 mg in 65 mL when present (in 650 μL DMSO). All internal and external solutions for this experiment contain 1% DMSO. Cells were acutely trypsinized from a T-75 flask and resuspended in extracellular buffer at a density of 2×10^5 cells/mL.
Experiments were performed at room temperature. Transmembrane potential was held at −100 mV for 5 seconds prior to running the voltage protocol. During this time leak currents were measured during a step to −110 mV (200 milliseconds). T-type calcium currents were activated with a 250 millisecond step to −20 mV. This depolarization step was repeated for a total of 10 pulses with an interpulse interval of 1 second. Data were excluded if the following acceptance criteria were not met: total resistance for the pre-compound scan>65 MΩ, pre-compound current>250 pA, post compound total resistance>50 MΩ.
T-type currents were measured as the peak inward current minus the current at the end of the 250 msec step to −20 mV. After the recoding configuration was established there was a pre-compound measurement of current amplitude. Compound was added as a 3× solution containing 1% DMSO. After incubation with compound for 10 minutes currents were measured again. The current amplitude after compound addition was divided by the pre-compound current for pulse 10 to determine the fraction of current remaining after compound addition. For each compound, 8-point concentration-effect relationships were measured with ½ log serial dilutions.

Each structure is given as a SMILES string. Like-named read-outs stand apart in the source and are kept apart here.

T2 sequence (O95180 whole entry): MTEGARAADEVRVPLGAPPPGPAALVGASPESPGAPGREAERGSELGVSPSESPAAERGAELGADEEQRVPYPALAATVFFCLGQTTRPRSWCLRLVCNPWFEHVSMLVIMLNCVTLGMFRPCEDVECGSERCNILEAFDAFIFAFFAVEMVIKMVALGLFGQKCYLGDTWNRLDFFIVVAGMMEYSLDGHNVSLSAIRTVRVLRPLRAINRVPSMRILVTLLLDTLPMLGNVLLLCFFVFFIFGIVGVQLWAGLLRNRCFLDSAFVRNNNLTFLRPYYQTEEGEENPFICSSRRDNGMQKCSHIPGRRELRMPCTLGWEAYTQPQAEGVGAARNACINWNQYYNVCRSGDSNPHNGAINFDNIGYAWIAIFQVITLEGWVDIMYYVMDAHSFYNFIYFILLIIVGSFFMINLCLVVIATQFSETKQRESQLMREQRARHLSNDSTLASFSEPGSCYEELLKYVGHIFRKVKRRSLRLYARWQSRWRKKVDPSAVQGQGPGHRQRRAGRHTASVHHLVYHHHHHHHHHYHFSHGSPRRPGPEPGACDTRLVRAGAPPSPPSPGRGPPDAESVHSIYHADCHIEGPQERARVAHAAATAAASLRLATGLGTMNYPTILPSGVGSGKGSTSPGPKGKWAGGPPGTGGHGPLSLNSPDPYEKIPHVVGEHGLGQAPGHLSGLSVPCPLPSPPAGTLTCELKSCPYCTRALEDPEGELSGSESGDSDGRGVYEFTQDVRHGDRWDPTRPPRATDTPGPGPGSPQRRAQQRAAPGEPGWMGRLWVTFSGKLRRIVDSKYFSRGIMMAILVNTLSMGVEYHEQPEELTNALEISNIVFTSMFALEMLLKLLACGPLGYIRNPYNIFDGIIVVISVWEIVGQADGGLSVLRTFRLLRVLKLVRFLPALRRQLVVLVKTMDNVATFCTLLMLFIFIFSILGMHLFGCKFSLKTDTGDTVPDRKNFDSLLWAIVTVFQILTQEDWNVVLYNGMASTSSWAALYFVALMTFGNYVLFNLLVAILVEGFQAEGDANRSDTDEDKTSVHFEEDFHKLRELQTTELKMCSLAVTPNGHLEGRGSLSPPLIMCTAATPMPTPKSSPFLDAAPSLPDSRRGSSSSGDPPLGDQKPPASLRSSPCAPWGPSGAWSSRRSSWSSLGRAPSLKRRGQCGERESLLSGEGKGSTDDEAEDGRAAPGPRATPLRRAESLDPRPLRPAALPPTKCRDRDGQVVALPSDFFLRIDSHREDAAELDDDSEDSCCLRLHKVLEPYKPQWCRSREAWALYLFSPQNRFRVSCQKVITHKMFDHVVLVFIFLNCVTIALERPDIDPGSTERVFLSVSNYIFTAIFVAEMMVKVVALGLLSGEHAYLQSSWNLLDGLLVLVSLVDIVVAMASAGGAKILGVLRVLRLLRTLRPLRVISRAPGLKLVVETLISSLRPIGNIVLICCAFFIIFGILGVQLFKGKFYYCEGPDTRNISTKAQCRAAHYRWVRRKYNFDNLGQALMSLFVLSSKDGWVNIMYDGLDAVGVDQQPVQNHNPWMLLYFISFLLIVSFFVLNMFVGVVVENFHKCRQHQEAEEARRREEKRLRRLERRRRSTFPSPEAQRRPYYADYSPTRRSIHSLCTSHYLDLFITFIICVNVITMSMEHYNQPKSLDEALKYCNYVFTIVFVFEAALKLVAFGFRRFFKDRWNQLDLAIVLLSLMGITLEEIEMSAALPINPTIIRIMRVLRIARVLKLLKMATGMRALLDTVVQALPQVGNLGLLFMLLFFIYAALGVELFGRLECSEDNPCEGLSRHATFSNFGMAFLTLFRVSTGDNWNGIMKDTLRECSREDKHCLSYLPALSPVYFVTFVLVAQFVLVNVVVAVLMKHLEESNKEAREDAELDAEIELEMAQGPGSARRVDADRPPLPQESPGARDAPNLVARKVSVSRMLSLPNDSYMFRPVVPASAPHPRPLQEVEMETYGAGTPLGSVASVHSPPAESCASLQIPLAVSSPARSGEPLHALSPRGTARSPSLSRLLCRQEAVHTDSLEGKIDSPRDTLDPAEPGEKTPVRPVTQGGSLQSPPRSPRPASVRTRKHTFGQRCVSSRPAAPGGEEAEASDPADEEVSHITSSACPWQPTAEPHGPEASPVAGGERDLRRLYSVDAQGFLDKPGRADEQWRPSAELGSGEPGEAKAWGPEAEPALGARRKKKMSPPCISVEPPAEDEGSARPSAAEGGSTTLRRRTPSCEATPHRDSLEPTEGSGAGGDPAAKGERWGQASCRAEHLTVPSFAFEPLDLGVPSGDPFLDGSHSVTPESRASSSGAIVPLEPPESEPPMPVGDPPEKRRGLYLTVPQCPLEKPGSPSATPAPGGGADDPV
T1 sequence (O35433 whole entry): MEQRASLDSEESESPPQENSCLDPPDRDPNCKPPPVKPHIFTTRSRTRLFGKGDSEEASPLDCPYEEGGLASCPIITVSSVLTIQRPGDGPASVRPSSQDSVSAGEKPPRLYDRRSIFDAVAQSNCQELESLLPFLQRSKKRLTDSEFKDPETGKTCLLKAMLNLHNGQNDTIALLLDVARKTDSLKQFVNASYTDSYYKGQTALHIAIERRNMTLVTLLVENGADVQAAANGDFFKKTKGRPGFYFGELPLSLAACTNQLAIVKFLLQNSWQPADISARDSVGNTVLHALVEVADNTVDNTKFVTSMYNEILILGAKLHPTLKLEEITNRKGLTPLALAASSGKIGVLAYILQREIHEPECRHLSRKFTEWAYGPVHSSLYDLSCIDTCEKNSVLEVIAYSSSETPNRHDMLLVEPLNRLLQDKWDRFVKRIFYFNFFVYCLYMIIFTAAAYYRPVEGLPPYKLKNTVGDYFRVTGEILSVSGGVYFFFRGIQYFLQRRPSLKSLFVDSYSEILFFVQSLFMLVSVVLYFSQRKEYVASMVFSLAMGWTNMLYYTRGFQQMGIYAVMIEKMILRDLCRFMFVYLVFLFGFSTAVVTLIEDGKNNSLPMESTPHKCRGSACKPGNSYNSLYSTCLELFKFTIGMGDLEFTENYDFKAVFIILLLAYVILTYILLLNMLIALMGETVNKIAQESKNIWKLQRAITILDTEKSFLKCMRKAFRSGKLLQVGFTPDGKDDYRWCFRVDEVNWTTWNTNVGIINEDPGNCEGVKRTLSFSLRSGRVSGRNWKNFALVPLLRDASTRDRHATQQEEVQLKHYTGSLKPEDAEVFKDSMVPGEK

On to `CC(C)(C)c1ccc(NC(=O)N2CCC3(CC2)C(=O)N(c2ccccn2)C3c2ccccc2)cc1` (stereo not drawn), for which the concentration for half-maximal inhibition (IC50) (in general, the concentration that inhibits the measured activity by half) in assay [1] (FLIPR, HEK293-TetOFF-TRPV1, capsaicin 50 nM final, read-out: VR1 flipr CAPSAICIN IC50) was determined as 1 nM. For `Oc1cc2c(cc1O)CN(C(=S)NCCc1ccc(Cl)cc1)CCC2` [capsazepine, reference compound], the IC50 in assay [1] (reference antagonist in reagent preparation, read-out: IC50 of competitive antagonist capsazepine) is roughly 500 nM.

Consider `CC[C@H](C)[C@H](NC(=O)N1CCC2(CC1)C(=O)N(c1cccc(Cl)c1)C2c1ccccn1)C(=O)OC` (stereo partly drawn) [drawing 571], for which, in assay [2], the half-inhibitory concentration (IC50) was determined as 584 nM. Same read-out and setting: in the case of `CC[C@H](C)[C@H](NC(=O)N1CCC2(CC1)C(=O)N(c1cccc(Cl)c1)C2c1ccccn1)C(=O)OC` (stereo partly drawn) [drawing 572] it was 635 nM; in that of `CC(NC(=O)N1CCC2(CC1)C(=O)N(c1cccc(Cl)c1)C2c1ccccn1)c1ccc(F)cc1` (stereo not drawn) [drawing 575], 745 nM; in that of `CC(NC(=O)N1CCC2(CC1)C(=O)N(c1cccc(Cl)c1)C2c1ccccn1)c1ccc(F)cc1` (stereo not drawn) [drawing 576], 191 nM. The same measure, in the same setting: in the case of `N#Cc1cccc(N2C(=O)C3(CCN(C(=O)Nc4cc(F)cc(F)c4)CC3)C2c2ccccn2)c1` (stereo not drawn) [drawing 585] it was 732 nM; in that of `N#Cc1cccc(N2C(=O)C3(CCN(C(=O)Nc4cc(F)cc(F)c4)CC3)C2c2ccccn2)c1` (stereo not drawn) [drawing 586], 247 nM; in that of `N#Cc1cccc(NC(=O)N2CCC3(CC2)C(=O)N(c2cccc(C#N)c2)C3c2ccccn2)c1` (stereo not drawn) [drawing 593], 2910 nM. Same read-out and setting: in the case of `N#Cc1cccc(NC(=O)N2CCC3(CC2)C(=O)N(c2cccc(C#N)c2)C3c2ccccn2)c1` (stereo not drawn) [drawing 594] it was 1170 nM; in that of `C[C@H](NC(=O)N1CCC2(CC1)C(=O)N(c1cccc(Cl)c1)C2c1cccnc1)c1ccc(F)cc1` (stereo partly drawn) [drawing 611], 225 nM; in that of `N#Cc1cccc(NC(=O)N2CCC3(CC2)C(=O)N(c2cccc(Cl)c2)C3c2cccnc2)c1` (stereo not drawn) [drawing 634], 124 nM. For the compound `O=C(Nc1cc(F)cc(F)c1)N1CCC2(CC1)C(=O)N(c1cccc(Cl)c1)C2c1cccnc1` (stereo not drawn) [drawing 635], the IC50 in assay [2] was determined as 21 nM. For `O=C(Nc1cc(F)cc(F)c1)N1CCC2(CC1)C(=O)N(c1cccc(Cl)c1)C2c1cccnc1` (stereo not drawn) [drawing 636], the IC50 in assay [2] is 420 nM.

As for `C[C@H](NC(=O)N1CCC2(CC1)C(=O)N(c1cccc(Cl)c1)C2c1cccnc1)c1ccc(F)cc1` (stereo partly drawn) [drawing 637], the concentration for half-maximal inhibition (IC50) in assay [2] amounted to 669 nM. For `CC[C@H](C)[C@H](NC(=O)N1CCC2(CC1)C(=O)N(c1cccc(Cl)c1)C2c1cccnc1)C(=O)OC` (stereo partly drawn) [drawing 640], in assay [2], the half-maximal inhibitory concentration (IC50) worked out at 880 nM. On the same count and under the same terms, in the case of `CC[C@H](C)[C@H](NC(=O)N1CCC2(CC1)C(=O)N(c1cccc(Cl)c1)C2c1cccnc1)C(=O)OC` (stereo partly drawn) [drawing 641] it was 1300 nM. On the same count and under the same terms, with `N#Cc1cccc(NC(=O)N2CCC3(CC2)C(=O)N(c2cccc(Cl)c2)C3c2cccnc2)c1` (stereo not drawn) [drawing 643] the figure was 1660 nM.
